Measured values as given in patent publication US9605015B2, “Polyene compound, method for preparing the same, and antifungal drug comprising novel polyene compound as active ingredient” (INHA-INDUSTRY PARTNERSHIP INSTITUTE, priority 2011, dated 2017).
In brackets after ≈: the same amount, converted by molar mass.

Tests used:
[1] = system: Candida albicans ATCC 10231; assay: Antifungal activity analysis (growth inhibition in microtiter plates); type: cell-based; settings: Table 5
Procedure: The test organism used for the polyene macrolide bioactivity assays was Candida albicans ATCC 10231, which was grown in 120 μl of YM medium without NaCl (with an inoculum of 1,000 CFU per well) and 30 μl of diluted polyene macrolide samples. The antibiotics were diluted in methanol in series to ensure that concentrations resulting in no inhibition to complete inhibition of the growth of the test organism were used. The test organism cultures with diluted antibiotics were then incubated in 96-well microtiter plates at 30° C. without shaking. After 12, 14, and 16 h, growth was measured based on the optical density at 492 nm using a TECAN Infinite F50 microtiter plate reader. The optical density was plotted against the antibiotic concentration, and the MIC at which 50% of isolates are inhibited (MIC50) was estimated from the regression curve at 50% growth inhibition.

[2] = system: erythrocytes in defibrinated horse blood; assay: In vitro measurement of hemolytic activity; type: cell-based; settings: 37° C., 30 min
Procedure: The hemolytic assay for the polyene macrolides was performed by monitoring the ability of the macrolides to cause lysis of erythrocytes in defibrinated horse blood (Gene. 111:61-68, 1992). Samples (0.1 ml) with different polyene macrolide concentrations (10 to 500 μg/ml in DMSO) were prepared from stock solutions of the purified polyenes (5 mg/ml in DMSO). The diluted samples were mixed with 0.9 ml horse blood-phosphate-buffered saline (PBS), which consisted of PBS buffer containing 2.5% defibrinated horse blood (KisanBiotech, Korea), and incubated in a water bath at 37° C. Samples were collected at 30 min, centrifuged at 5,000 rpm for 5 min, and the OD540 was measured. One hundred percent hemolysis was defined as the OD540 value obtained from a suspension of 2.5% horse blood in distilled water, and 0.9 ml horse blood-PBS with the addition of 0.1 ml DMSO was used as a blank. Each experiment was performed in triplicate, and samples containing nystatin were used as standards.

[3] = Solubility measurement in aqueous Tris-HCl buffer by UV spectrophotometry; type: physicochemical; settings: aqueous 10 mmol Tris-HCl buffer (pH 7.0)
Description: The polyene region of nystatin is extremely non-polar, which is presumed to promote hydrophobic interactions with sterols within the fungal cell membrane, and orients the polyol component of the molecule toward the internal aqueous channel. However, this low polarity also leads to significant difficulties in administration during human therapy. To investigate the effect of the additional N-acetyl-glucosamine moiety, the present inventors tested the solubility of the purified NPP as well as the nystatin A1 as a reference in an aqueous buffer solution of 10 mmol Tris-HCl (pH 7.0) using spectrophotometric methods.
Particularly, stock solutions of nystatin A1 (Sigma, N6261) standard (1.2 mg/ml) and the purified NPP (12 mg/ml) were prepared in methanol. A 100 μl portion of each stock was freeze-dried under vacuum for 24 h. Either 50 μl (nystatin A1) or 2 μl (NPP) of aqueous 10 mmol Tris-HCl buffer (pH 7.0) was added to the dry polyenes, and the solution was saturated by extensive (>15 min) vortexing. After centrifugation, polyene concentrations in the solution were determined by measuring UV absorbance spectra on SHIMADZU UV-1601 UV/Vis spectrophotometer after appropriate dilution. Specifically, the characteristic tetraene UV peak at 306 nm was used for quantification with experimentally determined extinction coefficients (J. Med. Chem. 49:2431-2439, 2006).

C[C@@H]1[C@H](O)[C@@H](C)/C=C/C=C/CC/C=C/C=C/C=C/C=C/C(O[C@H]2O[C@H](C)[C@@H](O)[C@H](N)[C@@H]2O)CC2O[C@](O)(CC(O)C(O)CCC(O)CC(O)CC(O)CC(=O)O[C@H]1C)CC(O)C2C(=O)O (some centres unmarked) [nystatin, nystatin A1]
Antifungal activity (IC50, μg/ml) [1]: 0.43 ± 0.02 µg/mL
HC50 ([2]; 2.5% defibrinated horse blood in PBS): 33 µg/mL
Hemolytic activity (HC50, μg/ml) ([2]; Table 5, horse blood): 33 ± 0.54 µg/mL
solubility ([3]; Table 5): 0.11 ± 0.03 mg/mL (≈ 119 µM)
solubility [3]: 0.11 mg/mL (≈ 119 µM)
